Data published in paper PMC9841524, “Structure-Based Rational Design of Small α-Helical Peptides with Broad-Spectrum Activity against Multidrug-Resistant Pathogens” (Journal of Medicinal Chemistry, 2022).
Where no end group is shown, it is not given here.

Experiments:
[1] = tested on: E. faecium (ATCC 27270); assay: microbe, parasite or virus in culture
Description: (§1) Description of the characteristics and growth conditions of various bacterial strains used in the study are provided in the Supporting Information (Table S3). Antibacterial susceptibility testing was carried out using a standard microtiter dilution method recommended by the clinical and laboratory standard institute (CLSI) and measured as a minimum inhibitory concentration (MIC), the lowest peptide concentration that inhibited bacterial growth. Briefly, the overnight grown cultures in the recommended broth for each bacterial strain were diluted in cation-adjusted Mueller Hinton Broth (CAMHB) to give an inoculum of 10^6 colony-forming units (CFU)/mL. A 2-fold serially diluted test peptide solution (100 μL) was added to the microtiter plates. After adding bacterial suspension (100 μL), the plates were incubated at 37 °C for 24 h, and the MICs were determined. The same protocol was used to determine the MICs in the presence of salts and serum except using the media supplemented with various cationic salts (150 mM NaCl, 4.5 mM KCl, 6 mM NH4Cl, 1 mM MgCl2, and 2 mM CaCl2) or 25% FBS. The data was acquired from three independent assays performed in triplicate.
(§2) The bacterial strains employed in this study were obtained from the American Type Culture Collection (ATCC). Each strain was propagated as recommended by the ATCC, and each strain was stored as a frozen glycerol stock at -80°C. A bacterial colony was grown on the appropriate agar as indicated in Table S1 and was used to inoculate the appropriate broth. The culture was incubated at the appropriate conditions, as mentioned in Table S1. Following the incubation, the culture was diluted to an optical density 625 nm (OD625) of 0.1 in cation adjusted Mueller Hinton Broth (CAMHB), which is equivalent to 1 × 10^8 CFU/mL. The culture was further diluted to 1 × 10^6 CFU/mL, which was used to conduct the MIC determination assay. For the S. pneumoniae strains, CAMHB + 2.5% lysed horse blood was required for the assay. The strains with their […]
(§3) Table S3. Description of the characteristics and growth conditions of various bacterial strains

[2] = tested on: E. faecalis (ATCC 51575); assay: microbe, parasite or virus in culture; settings: Gram-positive, vancomycin-resistant; CLSI microdilution, CAMHB, 37 °C, 24 h; highest MIC of three independent experiments in triplicate
Description: as §1, §2, §3

[3] = tested on: E. faecium (ATCC 700221); assay: microbe, parasite or virus in culture; settings: Gram-positive, vancomycin-resistant; CLSI microdilution, CAMHB, 37 °C, 24 h; highest MIC of three independent experiments in triplicate
Description: as §1, §2, §3

[4] = Calcein dye leakage assay; settings: after 100 min, 10% Triton X-100 = 100%, triplicate
Description: The calcein dye leakage assay was conducted using the large unilamellar vesicles (LUVs) composed of 1,2-dioleoyl-sn-glycero-3-phosphocholine (DOPC) and 1,2-dioleoyl-sn-glycero-3-phosphoglycerol (DOPG) to mimic the bacterial membrane (DOPC/DOPG, 7:3, w/w) or mammalian membrane (DOPC/cholesterol, 10:1, w/w), as we described previously.[18] At various concentrations (5, 10, 20, 30, and 50 μg/mL) test peptides 8a and 8b (50 μL) mixed with liposome suspension (50 μL), and fluorescence intensity was read every 10 min for 100 min at an excitation wavelength of 490 nm and an emission wavelength of 520 nm on a SpectraMax M5 multi-mode microplate reader. Considering calcein release from liposomes treated with a 10% solution (w/v) of Triton X-100 as 100%, the apparent percentage of dye leakage was calculated using the following formula [drawing 2] where F is the intensity measured at a given peptide concentration, F0 is the background intensity of the liposome sample, and Ft is the intensity after lysis induced by Triton X-100.

[5] = tested on: MRSA (ATCC BAA-1556); assay: Bactericidal kinetic assay; assay type: cell-based, methicillin-resistant S. aureus; settings: for killing of MRSA cells at 4 × MIC: after 4 h of incubation
Description: The time course of bacterial killing was studied by the exposure of overnight grown cultures of MRSA (ATCC BAA-1556) and E. coli (ATCC BAA-2452) to 8a and 8b at the MIC and 4× the MIC in Muller Hinton media. Bacterial cells (2 × 10^6 CFU/mL) were treated with peptides and standard antibiotics and incubated at 37 °C. Aliquots were withdrawn at a 30 min time interval for 4 h and plated on the agar plate to determine the number of viable bacterial colonies. Data were obtained from two independent experiments performed in triplicate.

[6] = tested on: MRSA (ATCC BAA-1556); assay: Flow cytometric analysis of PI-stained cells; assay type: cell-based, methicillin-resistant S. aureus; settings: flow cytometry; for PI fluorescence of MRSA cells at MIC: 1 h treatment, 10^7 CFU/mL
Description: The flow cytometric analysis was performed by using MRSA (ATCC BAA-1556) and E. coli (ATCC BAA-2452) cultures grown to the mid log phase in Mueller Hinton broth (HIMEDIA). Before treatment, bacterial cells were washed thrice with buffer (10 mM Tris, pH 7.4) and resuspended in the same buffer to obtain 10^7 CFU/mL bacterial suspensions. Test peptides (8a and 8b) and the standard antibiotics (daptomycin and polymyxin B) at MIC and 4 × MIC were incubated with bacterial suspension for 1 h. Following the treatment with test peptides, the cells were pelleted by centrifugation at 3000g for 15 min in a microcentrifuge. The supernatant was decanted, and the cells were washed with PBS several times and then incubated with PI ([…]) in the dark for 15 min at 37 °C. FACS analysis of the stained bacterial cells was performed using a FACscan flow cytometer (BD Accuri C6, BD Biosciences, California, USA), and data were analyzed by using Cell Quest software.

[7] = tested on: S. pneumoniae (ATCC 49619); settings: Gram-positive; CLSI microdilution, CAMHB + 2.5% lysed horse blood, 37 °C, 24 h; highest MIC of three independent experiments in triplicate
In short: (§4)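 Broth microdilution per CLSI: overnight cultures diluted in cation-adjusted Mueller Hinton Broth to 10^6 CFU/mL, mixed with 2-fold serial peptide dilutions, incubated 37 °C for 24 h. MIC = lowest peptide concentration inhibiting growth. Three independent assays in triplicate.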

[8] = tested on: nonresistant and MDR S. pneumoniae; settings: Table 2
In short: as §4

[9] = bacterial membrane mimicking LUVs
[10] = mammalian membrane mimicking LUVs

| Molecule | MIC, E. faecium (ATCC 27270) ([1]; ATCC 27270, 24 h) [µg/mL] | MIC, E. faecalis (ATCC 51575) [2] [µg/mL] | MIC, E. faecium (ATCC 700221) [3] [µg/mL] | calcein dye leakage, 5 μg/mL [4, 9] | calcein dye leakage, 50 μg/mL [4, 10] | killing of MRSA cells at 4 × MIC [5] | PI fluorescence of MRSA cells at MIC [6] [%] | MIC, S. pneumoniae (ATCC 49619) [7] [µg/mL] | calcein dye leakage, 50 μg/mL [4, 9] [%] | time to complete killing of MRSA at 4 × MIC ([5]; 4 × MIC) [h] | MIC, E. faecium (ATCC 27270) ([1]; Gram-positive, CLSI microdilution, CAMHB, 37 °C, 24 h, highest MIC of three independent experiments in triplicate) [µg/mL] | PI-stained population of MRSA cells ([6]; MIC and 4 × MIC, 1 h) | MIC, nonresistant and MDR S. pneumoniae [8] [µg/mL] |
| --- | --- | --- | --- | --- | --- | --- | --- | --- | --- | --- | --- | --- | --- |
| KWIKKWIKWWKK-NH2 [7b] | 6.2 | 6.2 | 6.2 |  |  |  |  |  |  |  |  |  |  |
| RWLRRWLRWWRR-NH2 [8a] | 6.2 | 6.2 | 3.1 | approximately 30% | 19% | completely eliminated | 34.2 |  |  |  |  |  |  |
| CCCCCCCCCC(=O)N[C@@H](Cc1c[nH]c2ccccc12)C(=O)N[C@H](CC(N)=O)C(=O)N[C@@H](CC(=O)O)C(=O)N[C@@H]1C(=O)NCC(=O)N[C@@H](CCCN)C(=O)N[C@@H](CC(=O)O)C(=O)N[C@H](C)C(=O)N[C@@H](CC(=O)O)C(=O)NCC(=O)N[C@H](CO)C(=O)N[C@@H]([C@H](C)CC(=O)O)C(=O)N[C@@H](CC(=O)c2ccccc2N)C(=O)O[C@@H]1C [daptomycin, reference compound] |  | 12.5 | 6.2 |  | around 7% |  |  | 12.5 | 42 | 3 | 1.5 | did not significantly increase |  |
| KWLKKWLKWWKK-NH2 [8b] | 3.1 | 6.2 | 3.1 | approximately 30% | 10% | completely eliminated | 42.1 | 12.5 |  |  |  |  | 12.5 |
| RWIRRWIRWWRR-NH2 [7a] | 6.2 | 12.5 | 6.2 |  |  |  |  |  |  |  |  |  |  |
